≈ marks a conversion by molar mass, not a printed value.
Key:
[1] = In vivo inhibition of BACE1 in Beagle dog assessed as reduction of amyloid beta (1 to 42 residues) levels in CSF at 5 mg/kg, po measured at 8 to 24 hrs; type: functional, Canis lupus familiaris; parameters: scale not given: the % may be the effect or the level left; conditions: time 8-24 hrs
hERG (KCNH2) = hERG (KCNH2) (Homo sapiens, UniProt Q12809); assay: Inhibition of hERG expressed in HEK293 cells at 3 uM at -80 mV holding potential by automated patch-clamp method; type: toxicity, cell-based; conditions: HEK293 cells expressing hERG
Cytochrome P450 2D6 = Cytochrome P450 2D6 (Homo sapiens, UniProt P10635); assay: Inhibition of human CYP2D6 by fluorescence plate reader analysis; type: ADME
Cathepsin D = Cathepsin D (Homo sapiens, UniProt P07339); assay: Inhibition of Cathepsin D (unknown origin)
Beta-secretase 1 = Beta-secretase 1 (Homo sapiens, UniProt P56817); assay: Inhibition of BACE1 (1 to 454 residues) (unknown origin) using APP harboring Swedish Lys/Met mutant-derived peptide as substrate by FRET assay
[2] = target: Voltage-gated inwardly rectifying potassium channel KCNH2 (Homo sapiens, UniProt Q12809); assay: Inhibition of hERG expressed in HEK293 cells at -80 mV holding potential by automated patch-clamp method; type: toxicity, cell-based
[3] = Metabolic stability in human liver microsomes assessed as metabolite formation after 15 mins in presence of NADPH by LC-MS analysis; type: ADME, Microsome; conditions: 0.25 h
[4] = Metabolic stability in mouse liver microsomes assessed as metabolite formation after 15 mins in presence of NADPH by LC-MS analysis; type: ADME, Microsome; conditions: 0.25 h
[5] = Free drug concentration in rat brain measured after 5 hrs by HPLC-MS/MS method; type: ADME, tissue-based
[6] = Free drug concentration in mouse plasma measured after 4.5 hrs by HPLC-MS/MS method; type: ADME, cell-free
[7] = In vivo inhibition of BACE1 in Beagle dog assessed as reduction of amyloid beta (1 to 42 residues) levels in CSF at 2.5 mg/kg, po measured after 8 hrs by electrochemiluminescence assay; type: functional, Canis lupus familiaris; parameters: scale not given: the % may be the effect or the level left
[8] = Drug level in CD-1 mouse plasma at 10 mg/kg, po measured at 1 hr post dose; type: ADME, organism-based
[9] = AUC (0 to infinity) in rat at 0.25 mg/kg, iv; type: ADME, organism-based; parameters: route intravenous, time infinity, dose 0.25 mg/kg; conditions: in vivo
[10] = AUC (0 to infinity) in dog at 0.25 mg/kg, iv; type: ADME, organism-based, Canis lupus familiaris; parameters: route intravenous, time infinity, dose 0.25 mg/kg; conditions: in vivo
[11] = Clearance in mouse plasma at 0.28 mg/kg, iv; type: ADME, organism-based
[12] = Clearance in dog plasma at 0.25 mg/kg, iv; type: ADME, organism-based, Canis lupus familiaris
[13] = Clearance in dog at 0.25 mg/kg, iv to liver blood flow; type: ADME, organism-based, Canis lupus familiaris; conditions: in vivo
[14] = Cmax in mouse at 2.1 mg/kg, po; type: ADME, organism-based; parameters: route oral, dose 2.1 mg/kg; conditions: in vivo
[15] = Cmax in dog at 2.5 mg/kg, po; type: ADME, organism-based, Canis lupus familiaris; parameters: route oral, dose 2.5 mg/kg; conditions: in vivo
[16] = Tmax in rat at 2.3 mg/kg, po; type: ADME, organism-based; conditions: in vivo
[17] = Tmax in dog at 2.5 mg/kg, po; type: ADME, organism-based, Canis lupus familiaris; conditions: in vivo
[18] = AUC (0 to last) in mouse at 2.1 mg/kg, po; type: ADME, organism-based; parameters: route oral, time 0 - last, dose 2.1 mg/kg; conditions: in vivo
[19] = AUC (0 to last) in rat at 2.3 mg/kg, po; type: ADME, organism-based; parameters: time 0 - last, route oral, dose 2.3 mg/kg; conditions: in vivo
[20] = Oral bioavailability in mouse at 2.1 mg/kg; type: ADME, organism-based; conditions: in vivo
[21] = Oral bioavailability in rat at 2.3 mg/kg; type: ADME, organism-based; conditions: in vivo
[22] = Oral bioavailability in dog at 2.5 mg/kg; type: ADME, organism-based, Canis lupus familiaris; conditions: in vivo
[23] = Cardiotoxicity in guinea pig assessed as effect on heart rate upto 5 mg/kg, iv administered over 10 mins at 30 mins interval by ECG analysis; type: toxicity, organism-based, Cavia porcellus; conditions: in vivo
[24] = Drug level in CD-1 mouse brain at 10 mg/kg, po measured at 2 hr post dose; type: ADME, organism-based; conditions: read-out: Ct
[25] = Ratio of unbound drug concentration in brain to blood in CD-1 mouse at 10 mg/kg, po measured at 4 hr post dose; type: ADME, organism-based
Cytochrome P450 3A4 [26] = target: T1, Cytochrome P450 3A4 (Homo sapiens, UniProt P08684); assay: Inhibition of human CYP3A4 using testosterone as substrate by fluorescence plate reader analysis; type: ADME
Cytochrome P450 3A4 [27] = target: T1, Cytochrome P450 3A4; assay: Inhibition of human CYP3A4 using midazolam as substrate by fluorescence plate reader analysis; type: ADME
[28] = Apparent permeability across apical to basolateral side in dog MDCK-MDR1 cells at 5 uM incubated for 120 mins; type: ADME, cell-based, Canis lupus familiaris
Cytochrome P450 2C8 = target: T2, Cytochrome P450 2C8 (Homo sapiens, UniProt P10632); assay: Inhibition of human CYP2C8 by fluorescence plate reader analysis; type: ADME
T2 sequence (P10632 whole entry): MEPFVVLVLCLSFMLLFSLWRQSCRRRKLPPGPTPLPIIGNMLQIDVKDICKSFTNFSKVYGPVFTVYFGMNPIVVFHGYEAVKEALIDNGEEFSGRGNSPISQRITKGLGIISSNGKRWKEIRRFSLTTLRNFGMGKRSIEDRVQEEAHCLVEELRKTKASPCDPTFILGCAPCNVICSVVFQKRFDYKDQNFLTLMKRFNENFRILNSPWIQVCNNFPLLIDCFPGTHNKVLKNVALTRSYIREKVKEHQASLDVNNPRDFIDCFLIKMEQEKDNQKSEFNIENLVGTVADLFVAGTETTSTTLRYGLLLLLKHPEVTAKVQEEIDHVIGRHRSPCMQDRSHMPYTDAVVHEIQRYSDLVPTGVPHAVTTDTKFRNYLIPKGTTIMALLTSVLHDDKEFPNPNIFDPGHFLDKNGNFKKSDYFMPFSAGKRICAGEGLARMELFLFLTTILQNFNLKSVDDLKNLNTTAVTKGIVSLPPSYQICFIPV

Cytochrome P450 2C19 = Cytochrome P450 2C19 (Homo sapiens, UniProt P33261); assay: Inhibition of human CYP2C19 by fluorescence plate reader analysis; type: ADME
[29] = In vivo inhibition of BACE1 in Beagle dog assessed as reduction of amyloid beta (1 to 42 residues) levels in CSF administered orally by electrochemiluminescence assay; type: functional, organism-based, Canis lupus familiaris
[30] = Cardiotoxicity in guinea pig assessed as effect on blood pressure upto 5 mg/kg, iv administered over 10 mins at 30 mins interval; type: toxicity, organism-based, Cavia porcellus; conditions: in vivo
[31] = Cardiotoxicity in guinea pig assessed as effect on PQ interval upto 5 mg/kg, iv administered over 10 mins at 30 mins interval by ECG analysis; type: toxicity, organism-based, Cavia porcellus; conditions: in vivo
[32] = Cardiotoxicity in guinea pig assessed as effect on QRS interval upto 5 mg/kg, iv administered over 10 mins at 30 mins interval by ECG analysis; type: toxicity, organism-based, Cavia porcellus; conditions: in vivo
[33] = Toxicity in Beagle dog assessed as behavioral changes at 0.31 to 5 mg/kg, po; type: organism-based, Canis lupus familiaris; conditions: in vivo, dose 0.31-5 mg/kg
[34] = Toxicity in Beagle dog assessed as clinical pathological changes at 0.31 to 5 mg/kg, po; type: organism-based, Canis lupus familiaris; conditions: in vivo, dose 0.31-5 mg/kg
[35] = In vivo inhibition of CD-1 mouse assessed as remaining amyloid beta (1 to 42 residues) levels in CSF at 10 mg/kg, po measured at 1 hr; type: functional
[36] = In vivo inhibition of CD-1 mouse assessed as remaining amyloid beta (1 to 42 residues) levels in CSF at 10 mg/kg, po measured at 4 hrs; type: functional

T1 sequence (P08684 whole entry): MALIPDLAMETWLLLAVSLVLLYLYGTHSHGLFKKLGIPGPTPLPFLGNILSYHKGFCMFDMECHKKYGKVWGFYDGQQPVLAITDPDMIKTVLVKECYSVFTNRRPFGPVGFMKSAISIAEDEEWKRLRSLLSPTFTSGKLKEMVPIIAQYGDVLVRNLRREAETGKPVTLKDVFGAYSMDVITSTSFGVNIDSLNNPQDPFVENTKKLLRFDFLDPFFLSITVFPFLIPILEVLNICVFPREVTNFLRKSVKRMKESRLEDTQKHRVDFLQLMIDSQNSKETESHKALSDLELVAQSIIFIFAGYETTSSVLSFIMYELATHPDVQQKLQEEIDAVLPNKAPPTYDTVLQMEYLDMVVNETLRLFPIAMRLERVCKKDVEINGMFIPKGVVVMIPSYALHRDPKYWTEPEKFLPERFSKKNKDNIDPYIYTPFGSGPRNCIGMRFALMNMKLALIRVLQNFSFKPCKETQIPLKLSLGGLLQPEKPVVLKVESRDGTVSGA
Chain of Cytochrome P450 2C19 (P33261 whole entry, the tested form may be a part): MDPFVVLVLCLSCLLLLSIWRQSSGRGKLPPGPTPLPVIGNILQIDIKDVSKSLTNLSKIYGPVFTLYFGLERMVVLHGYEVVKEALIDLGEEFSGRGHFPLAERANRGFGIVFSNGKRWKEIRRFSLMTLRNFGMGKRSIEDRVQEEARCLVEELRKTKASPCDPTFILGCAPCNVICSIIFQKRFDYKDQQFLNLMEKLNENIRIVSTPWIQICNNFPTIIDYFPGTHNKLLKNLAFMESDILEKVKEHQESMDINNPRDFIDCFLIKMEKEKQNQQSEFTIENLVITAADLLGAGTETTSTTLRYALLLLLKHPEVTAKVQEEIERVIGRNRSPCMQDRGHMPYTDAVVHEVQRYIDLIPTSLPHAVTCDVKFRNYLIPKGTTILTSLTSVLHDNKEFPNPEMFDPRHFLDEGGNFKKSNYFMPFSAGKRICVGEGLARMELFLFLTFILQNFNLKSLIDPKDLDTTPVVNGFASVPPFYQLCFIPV
Chain of hERG (KCNH2) (Q12809 whole entry): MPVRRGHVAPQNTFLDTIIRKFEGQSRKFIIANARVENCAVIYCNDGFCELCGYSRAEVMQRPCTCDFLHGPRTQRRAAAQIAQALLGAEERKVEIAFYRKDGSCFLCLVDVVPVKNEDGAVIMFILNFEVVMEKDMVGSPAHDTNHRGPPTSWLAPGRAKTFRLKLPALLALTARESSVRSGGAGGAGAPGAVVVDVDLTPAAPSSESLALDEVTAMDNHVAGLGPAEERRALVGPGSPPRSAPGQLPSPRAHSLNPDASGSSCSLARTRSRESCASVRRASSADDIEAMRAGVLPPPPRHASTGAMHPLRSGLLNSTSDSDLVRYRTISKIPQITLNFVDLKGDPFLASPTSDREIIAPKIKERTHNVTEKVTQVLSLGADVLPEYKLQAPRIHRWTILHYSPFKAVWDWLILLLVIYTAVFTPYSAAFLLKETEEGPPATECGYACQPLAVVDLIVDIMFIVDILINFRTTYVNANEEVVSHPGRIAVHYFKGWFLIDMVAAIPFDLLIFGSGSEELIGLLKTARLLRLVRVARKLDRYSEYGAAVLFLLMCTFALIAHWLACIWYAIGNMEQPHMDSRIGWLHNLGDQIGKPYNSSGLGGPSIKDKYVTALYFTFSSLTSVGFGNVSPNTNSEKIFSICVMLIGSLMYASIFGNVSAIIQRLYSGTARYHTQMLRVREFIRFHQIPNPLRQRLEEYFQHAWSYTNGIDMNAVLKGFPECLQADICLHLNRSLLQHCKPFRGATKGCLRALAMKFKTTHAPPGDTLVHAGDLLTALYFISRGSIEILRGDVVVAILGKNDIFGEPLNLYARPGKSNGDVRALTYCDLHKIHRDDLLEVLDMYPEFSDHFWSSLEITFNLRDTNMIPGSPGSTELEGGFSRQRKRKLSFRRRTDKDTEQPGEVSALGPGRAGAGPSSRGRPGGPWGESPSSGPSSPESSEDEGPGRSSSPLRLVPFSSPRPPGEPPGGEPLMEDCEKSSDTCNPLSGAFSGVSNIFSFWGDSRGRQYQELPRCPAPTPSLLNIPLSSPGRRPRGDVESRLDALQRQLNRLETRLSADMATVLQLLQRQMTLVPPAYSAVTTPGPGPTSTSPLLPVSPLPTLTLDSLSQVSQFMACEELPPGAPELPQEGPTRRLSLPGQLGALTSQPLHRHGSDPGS
Chain of Voltage-gated inwardly rectifying potassium channel KCNH2 (Q12809 whole entry): as above
Chain of Cytochrome P450 2D6 (P10635 whole entry): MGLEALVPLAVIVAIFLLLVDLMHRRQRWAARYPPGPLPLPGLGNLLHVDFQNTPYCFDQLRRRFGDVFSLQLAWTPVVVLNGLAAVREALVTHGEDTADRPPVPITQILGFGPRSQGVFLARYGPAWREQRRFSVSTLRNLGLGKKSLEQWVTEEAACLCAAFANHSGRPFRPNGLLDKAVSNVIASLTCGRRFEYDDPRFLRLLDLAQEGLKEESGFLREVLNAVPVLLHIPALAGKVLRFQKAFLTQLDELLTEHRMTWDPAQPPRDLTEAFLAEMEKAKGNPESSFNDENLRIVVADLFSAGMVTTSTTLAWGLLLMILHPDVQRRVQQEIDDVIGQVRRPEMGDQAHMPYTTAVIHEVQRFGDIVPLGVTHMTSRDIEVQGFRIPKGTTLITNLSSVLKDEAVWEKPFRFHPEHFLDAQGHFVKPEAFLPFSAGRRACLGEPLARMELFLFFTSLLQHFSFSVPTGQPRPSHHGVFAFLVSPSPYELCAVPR
Chain of Cathepsin D (P07339 65-162 limits assumed): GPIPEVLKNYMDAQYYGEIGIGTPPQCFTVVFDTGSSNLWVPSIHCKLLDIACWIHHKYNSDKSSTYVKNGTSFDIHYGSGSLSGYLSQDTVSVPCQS
Chain of Cathepsin D (P07339 169-412 limits assumed): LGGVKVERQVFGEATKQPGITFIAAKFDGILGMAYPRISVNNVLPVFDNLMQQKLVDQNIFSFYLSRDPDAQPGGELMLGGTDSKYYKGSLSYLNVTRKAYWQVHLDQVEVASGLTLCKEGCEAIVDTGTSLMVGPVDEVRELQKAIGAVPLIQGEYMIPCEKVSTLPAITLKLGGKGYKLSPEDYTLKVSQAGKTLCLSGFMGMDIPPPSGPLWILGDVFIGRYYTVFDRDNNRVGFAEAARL
Chain of Beta-secretase 1 (P56817 whole entry, the tested form may be a part): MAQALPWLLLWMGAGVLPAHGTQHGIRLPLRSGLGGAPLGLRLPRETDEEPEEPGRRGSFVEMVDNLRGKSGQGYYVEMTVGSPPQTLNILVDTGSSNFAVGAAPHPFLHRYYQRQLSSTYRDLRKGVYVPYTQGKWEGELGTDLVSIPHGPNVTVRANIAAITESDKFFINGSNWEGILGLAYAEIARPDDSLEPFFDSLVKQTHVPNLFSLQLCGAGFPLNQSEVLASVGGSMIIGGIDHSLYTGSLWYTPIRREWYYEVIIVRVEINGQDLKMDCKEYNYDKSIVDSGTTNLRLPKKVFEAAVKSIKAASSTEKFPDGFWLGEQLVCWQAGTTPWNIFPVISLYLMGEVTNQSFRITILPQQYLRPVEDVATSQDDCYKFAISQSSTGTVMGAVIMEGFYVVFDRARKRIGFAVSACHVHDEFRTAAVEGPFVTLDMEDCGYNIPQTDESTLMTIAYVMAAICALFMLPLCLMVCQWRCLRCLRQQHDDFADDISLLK

What does the source list for COc1cnc(C(=O)Nc2ccc(F)c([C@]3(C)Cn4nc(C#N)cc4C(N)=N3)c2)cn1?
Activity [1]: 80%; inhibition at 3 µM (hERG (KCNH2)): 48%; IC50 (Cytochrome P450 2D6): > 30 µM; IC50 (Cathepsin D): > 100 µM; IC50 (Beta-secretase 1): 2.9 nM; IC50 [2]: > 10 µM; Drug metabolism [3]: 8%; Drug metabolism [4]: 23%; fraction unbound at 5 h [5]: 0.015; fraction unbound at 4.5 h [6]: 0.05; Activity [7]: 85%; concentration at 1 h [8]: 591 ng/mL; AUC [9]: 219 ng·h/mL; AUC [10]: 654 ng·h/mL; clearance [11]: 23 mL/min/kg; clearance [12]: 6 mL/min/kg; CL [13]: 20%; Cmax [14]: 160 ng/mL; Cmax [15]: 352 ng/mL; Tmax [16]: 5 h; Tmax [17]: 2.3 h; AUClast [18]: 1910 ng·h/mL; AUClast [19]: 1170 ng·h/mL; bioavailability [20]: > 100%; bioavailability [21]: 59%; bioavailability [22]: 67%; Activity [23]: Non-Toxic; concentration at 2 h [24]: 888 ng/g; Kp uu at 4 h [25]: 0.22; IC50 (Cytochrome P450 3A4 [26]): > 30 µM; IC50 (Cytochrome P450 3A4 [27]): > 30 µM; Papp A→B at 2 h, 5 µM [28]: 13.1 ×10⁻⁶ cm/s; IC50 (Cytochrome P450 2C8): > 30 µM; IC50 (Cytochrome P450 2C19): > 30 µM; EC90 [29]: 44 ng/mL (≈ 0.105 µM); EC50 ([29]; Canis lupus familiaris, Beagle): 7.5 ng/mL (≈ 0.0178 µM); Activity [30]: Non-Toxic; Activity [31]: Non-Toxic; Activity [32]: Non-Toxic; Activity [33]: Non-Toxic; Activity [34]: Non-Toxic; Activity [35]: 74%; Activity [36]: 45%
